Source: patent publication US11596639B2, “Substituted indole Mcl-1 inhibitors” (Vanderbilt University, priority 2016, dated 2023)
Like-named read-outs stand apart in the source and are kept apart here.

Key:
[1] = system: H929 human cancer cell lines; test: Cellular viability / proliferation (Cell TiterGlo, 72 h); type: cell-based
Method in brief: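 Plating is at 1,000 cells/well in 10% FBS medium; after 24 h, compound is added as a 2-fold series starting at 50 μM with under 1% DMSO.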

[2] = biological target: Mcl-1 (Homo sapiens (Human), UniProt Q07820); test: Fluorescence polarization anisotropy (FPA) competition assay, FITC-Bak or FITC-Bim BH3 peptide; type: binding; conditions: read-out: Ki for Inhibition of Mcl-1 by FPA assay
[3] = Homo sapiens, NCI-H929, 72 h, read-out: GI50 on cellular proliferation of H929 human cancer cell lines, H929 cells, 72 h, Cell TiterGlo, 10% FBS

Mcl-1, sequence (Q07820 172-327): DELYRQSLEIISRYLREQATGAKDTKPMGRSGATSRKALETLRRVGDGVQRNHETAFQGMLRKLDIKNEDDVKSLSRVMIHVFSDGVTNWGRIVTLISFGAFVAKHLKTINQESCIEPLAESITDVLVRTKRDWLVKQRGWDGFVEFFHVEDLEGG

| SMILES | GI50 [1, 3] | Ki [2] | GI50 ([1]; H929 cells, 72 h, Cell TiterGlo, 10% FBS, read-out: GI50 on cellular proliferation of H929 human cancer cell lines) |
| --- | --- | --- | --- |
| Cc1cc(OCCCc2c3n(c4c(-c5c(C)nn(C)c5C)c(Cl)ccc24)[C@H](C)CN(c2nccc4cc(C(=O)O)ccc24)C3=O)cc(C)c1Cl [Example 264, 1-[(4R)-7-chloro-10-[3-(4-chloro-3,5-dimethyl-phenoxy)propyl]-4-methyl-1-oxo-6-(1,3,5-trimethylpyrazol-4-yl)-3,4-dihydropyrazino[1,2-a]indol-2-yl]isoquinoline-6-carboxylic acid] | 560 nM | < 1 nM | – |
| Cc1cc(OCCCc2c3n(c4c(-c5c(C)nn(C)c5C)c(Cl)ccc24)CCCN(c2cc(C(=O)O)cc4nn(CCN(C)C)cc24)C3=O)cc(C)c1Cl [Example 28, 4-[8-chloro-11-[3-(4-chloro-3,5-dimethyl-phenoxy)propyl]-1-oxo-7-(1,3,5-trimethylpyrazol-4-yl)-4,5-dihydro-3H-[1,4]diazepino[1,2-a]indol-2-yl]-2-[2-(dimethylamino)ethyl]indazole-6-carboxylic acid] | 3700 nM | 1.8 nM | – |
| COc1ccnc(Cn2c(C(=O)O)cc3cccc(N4C[C@@H](C)n5c(c(CCCOc6cc(C)c(Cl)c(C)c6)c6ccc(Cl)c(-c7c(C)nn(C)c7C)c65)C4=O)c32)c1 [Example 378, (R)-7-(7-Chloro-10-(3-(4-chloro-3,5-dimethylphenoxy)propyl)-4-methyl-1-oxo-6-(1,3,5-trimethyl-1H-pyrazol-4-yl)-3,4-dihydropyrazino[1,2-a]indol-2(1H)-yl)-1-((4-methoxypyridin-2-yl)methyl)-1H-indole-2-carboxylic acid] | 410 nM | 1.9 nM | – |
| Cc1cc(OCCCc2c3n(c4c(-c5c(C)n[nH]c5C)c(Cl)ccc24)CCCN(c2cc(C(=O)O)c4ccn(C)c4c2)C3=O)cc(C)c1Cl [Example 58, 6-(8-Chloro-11-(3-(4-chloro-3,5-dimethylphenoxy)propyl)-7-(3,5-dimethyl-1H-pyrazol-4-yl)-1-oxo-4,5-dihydro-1H-[1,4]diazepino[1,2-a]indol-2(3H)-yl)-1-methyl-1H-indole-4-carboxylic acid] | 3000 nM | < 1 nM | – |
| Cc1cc(OCCCc2c3n(c4c(-c5c(C)nn(C)c5C)c(Cl)ccc24)[C@H](C)CN(c2cccc4c2cc(-c2nnco2)n4C)C3=O)cc(C)c1Cl [Example 347, (R)-7-Chloro-10-(3-(4-chloro-3,5-dimethylphenoxy)propyl)-4-methyl-2-(1-methyl-2-(1,3,4-oxadiazol-2-yl)-1H-indol-4-yl)-6-(1,3,5-trimethyl-1H-pyrazol-4-yl)-3,4-dihydropyrazino[1,2-a]indol-1(2H)-one] | 1900 nM | 3.6 nM | – |
| Cc1cc(OCCCc2c3n(c4c(-c5c(C)nn(C)c5C)c(Cl)ccc24)[C@H](C)CN(c2ccc(O)c4cc(C(=O)O)n(C)c24)C3=O)cc(C)c1Cl [Example 321, (M, R)-7-(7-Chloro-10-(3-(4-chloro-3,5-dimethylphenoxy)propyl)-4-methyl-1-oxo-6-(1,3,5-trimethyl-1H-pyrazol-4-yl)-3,4-dihydropyrazino[1,2-a]indol-2(1H)-yl)-4-hydroxy-1-methyl-1H-indole-2-carboxylic acid] | – | < 1 nM | 1400 nM |
| COc1ccc(N2C[C@@H](C)n3c(c(CCCOc4cc(C)c(Cl)c(C)c4)c4ccc(Cl)c(-c5c(C)nn(C)c5C)c43)C2=O)c2c1cc(C(N)=O)n2Cc1ccccn1 [Example 466, (R)-7-(7-Chloro-10-(3-(4-chloro-3,5-dimethylphenoxy)propyl)-4-methyl-1-oxo-6-(1,3,5-trimethyl-1H-pyrazol-4-yl)-3,4-dihydropyrazino[1,2-a]indol-2(1H)-yl)-4-methoxy-1-(pyridin-2-ylmethyl)-1H-indole-2-carboxamide] | 300 nM | 1.8 nM | – |
| Cc1cc(OCCCc2c3n(c4c(-c5c(C)nn(C)c5C)c(Cl)ccc24)[C@H](C)CN(c2cccc4c2CCC4=O)C3=O)cc(C)c1Cl [Example 203, (R)-7-Chloro-10-(3-(4-chloro-3,5-dimethylphenoxy)propyl)-4-methyl-2-(1-oxo-2,3-dihydro-1H-inden-4-yl)-6-(1,3,5-trimethyl-1H-pyrazol-4-yl)-3,4-dihydropyrazino[1,2-a]indol-1(2H)-one] | 3900 nM | 6 nM | – |
| Cc1cc(N2C[C@@H](C)n3c(c(CCCOc4cc(C)c(Cl)c(C)c4)c4ccc(Cl)c(-c5c(C)n[nH]c5C)c43)C2=O)c2c(c1)cc(C(=O)O)n2C [Example 400, (R)-7-(7-chloro-10-(3-(4-chloro-3,5-dimethylphenoxy)propyl)-6-(3,5-dimethyl-1H-pyrazol-4-yl)-4-methyl-1-oxo-3,4-dihydropyrazino[1,2-a]indol-2(1H)-yl)-1,5-dimethyl-1H-indole-2-carboxylic acid] | 430 nM | 1.4 nM | – |
| Cc1cc(OCCCc2c3n(c4c(-c5c(C)nn(C)c5C)c(Cl)ccc24)[C@H](C)CN(c2ccc4c(c2)c(C(=O)O)nn4C)C3=O)cc(C)c1Cl [Example 116, (R)-5-(7-Chloro-10-(3-(4-chloro-3,5-dimethylphenoxy)propyl)-4-methyl-1-oxo-6-(1,3,5-trimethyl-1H-pyrazol-4-yl)-3,4-dihydropyrazino[1,2-a]indol-2(1H)-yl)-1-methyl-1H-indazole-3-carboxylic acid] | 9700 nM | < 1 nM | – |
| Cc1cc(OCCCc2c3n(c4c(-c5c(C)nn(C)c5C)c(Cl)ccc24)[C@H](C)CN(c2cn(C(C)C)c4ccc(C(=O)O)cc24)C3=O)cc(C)c1Cl [Example 166, (R)-3-(7-Chloro-10-(3-(4-chloro-3,5-dimethylphenoxy)propyl)-4-methyl-1-oxo-6-(1,3,5-trimethyl-1H-pyrazol-4-yl)-3,4-dihydropyrazino[1,2-a]indol-2(1H)-yl)-1-isopropyl-1H-indole-5-carboxylic acid] | 1400 nM | < 1 nM | – |
| Cc1nnc(Cn2c(C(=O)O)cc3cccc(N4C[C@@H](C)n5c(c(CCCOc6cc(C)c(Cl)c(C)c6)c6ccc(Cl)c(-c7c(C)nn(C)c7C)c65)C4=O)c32)o1 [Example 315, 7-[(4R)-7-chloro-10-[3-(4-chloro-3,5-dimethyl-phenoxy)propyl]-4-methyl-1-oxo-6-(1,3,5-trimethylpyrazol-4-yl)-3,4-dihydropyrazino[1,2-a]indol-2-yl]-1-[(5-methyl-1,3,4-oxadiazol-2-yl)methyl]indole-2-carboxylic acid] | 2800 nM | < 1 nM | – |
| Cc1cc(OCCCc2c3n(c4c(-c5c(C)nn(C)c5C)c(Cl)ccc24)[C@H](C)CN(c2cc(CN4CCCC4)cc4cc(C(=O)O)n(C)c24)C3=O)cc(C)c1Cl [Example 401, (R)-7-(7-chloro-10-(3-(4-chloro-3,5-dimethylphenoxy)propyl)-4-methyl-1-oxo-6-(1,3,5-trimethyl-1H-pyrazol-4-yl)-3,4-dihydropyrazino[1,2-a]indol-2(1H)-yl)-1-methyl-5-(pyrrolidin-1-ylmethyl)-1H-indole-2-carboxylic acid] | 280 nM | < 1 nM | – |
| Cc1cc(OCCCc2c3n(c4c(-c5c(C)nn(C)c5C)c(Cl)ccc24)[C@H](C)CN(c2cccc4c(C(=O)O)cn(Cc5ccncc5)c24)C3=O)cc(C)c1Cl [Example 472, (R)-7-(7-Chloro-10-(3-(4-chloro-3,5-dimethylphenoxy)propyl)-4-methyl-1-oxo-6-(1,3,5-trimethyl-1H-pyrazol-4-yl)-3,4-dihydropyrazino[1,2-a]indol-2(1H)-yl)-1-(pyridin-4-ylmethyl)-1H-indole-3-carboxylic acid] | 1700 nM | 1.2 nM | – |
| Cc1noc(-c2ccc3c(c2)c(N2C[C@@H](C)n4c(c(CCCOc5cc(C)c(Cl)c(C)c5)c5ccc(Cl)c(-c6c(C)nn(C)c6C)c54)C2=O)cn3C)n1 [Example 393, (R)-7-Chloro-10-(3-(4-chloro-3,5-dimethylphenoxy)propyl)-4-methyl-2-(1-methyl-5-(3-methyl-1,2,4-oxadiazol-5-yl)-1H-indol-3-yl)-6-(1,3,5-trimethyl-1H-pyrazol-4-yl)-3,4-dihydropyrazino[1,2-a]indol-1(2H)-one] | 1200 nM | 2.3 nM | – |
| CC[C@@H]1Cn2c(c(CCCOc3cc(C)c(Cl)c(C)c3)c3ccc(Cl)c(-c4c(C)nn(C)c4C)c32)C(=O)N1c1ccc(C(=O)O)c2ncccc12 [Example 19, (R)-5-(7-chloro-10-(3-(4-chloro-3,5-dimethylphenoxy)propyl)-3-ethyl-1-oxo-6-(1,3,5-trimethyl-1H-pyrazol-4-yl)-3,4-dihydropyrazino[1,2-a]indol-2(1H)-yl)quinoline-8-carboxylic acid] | 4100 nM | 1.9 nM | – |
| CCn1nc(C(=O)O)c2cccc(N3C[C@@H](C)n4c(c(CCCOc5cc(C)c(Cl)c(C)c5)c5ccc(Cl)c(-c6c(C)nn(C)c6C)c54)C3=O)c21 [Example 118, (R)-7-(7-chloro-10-(3-(4-chloro-3,5-dimethylphenoxy)propyl)-4-methyl-1-oxo-6-(1,3,5-trimethyl-1H-pyrazol-4-yl)-3,4-dihydropyrazino[1,2-a]indol-2(1H)-yl)-1-ethyl-1H-indazole-3-carboxylic acid] | 820 nM | < 1 nM | – |
| Cc1cc(OCCCc2c3n(c4c(-c5c(C)nn(C)c5C)c(Cl)ccc24)[C@H](C)CN(c2cn(C)c4cc(-c5nn[nH]n5)ccc24)C3=O)cc(C)c1Cl [Example 236, (R)-7-chloro-10-(3-(4-chloro-3,5-dimethylphenoxy)propyl)-4-methyl-2-(1-methyl-6-(2H-tetrazol-5-yl)-1H-indol-3-yl)-6-(1,3,5-trimethyl-1H-pyrazol-4-yl)-3,4-dihydropyrazino[1,2-a]indol-1(2H)-one] | 1100 nM | < 1 nM | – |
| Cc1cc(OCCCc2c3n(c4c(-c5c(C)ncnc5C)c(Cl)ccc24)CCCNC3=O)cc(C)c1Cl [Example 120, 8-Chloro-11-(3-(4-chloro-3,5-dimethylphenoxy)propyl)-7-(4,6-dimethylpyrimidin-5-yl)-2,3,4,5-tetrahydro-1H-[1,4]diazepino[1,2-a]indol-1-one] | 12000 nM | 39 nM | – |
